Assay results taken from article PMC6190683 (Bioorganic & medicinal chemistry letters, 2017).

Molecular target: Mtb NadE (Mycobacterium tuberculosis, UniProt P9WJJ3)
Test: ammonia-dependent Mtb NadE inhibition assay
Assay type: biochemical

Mtb NadE, sequence (P9WJJ3 whole entry): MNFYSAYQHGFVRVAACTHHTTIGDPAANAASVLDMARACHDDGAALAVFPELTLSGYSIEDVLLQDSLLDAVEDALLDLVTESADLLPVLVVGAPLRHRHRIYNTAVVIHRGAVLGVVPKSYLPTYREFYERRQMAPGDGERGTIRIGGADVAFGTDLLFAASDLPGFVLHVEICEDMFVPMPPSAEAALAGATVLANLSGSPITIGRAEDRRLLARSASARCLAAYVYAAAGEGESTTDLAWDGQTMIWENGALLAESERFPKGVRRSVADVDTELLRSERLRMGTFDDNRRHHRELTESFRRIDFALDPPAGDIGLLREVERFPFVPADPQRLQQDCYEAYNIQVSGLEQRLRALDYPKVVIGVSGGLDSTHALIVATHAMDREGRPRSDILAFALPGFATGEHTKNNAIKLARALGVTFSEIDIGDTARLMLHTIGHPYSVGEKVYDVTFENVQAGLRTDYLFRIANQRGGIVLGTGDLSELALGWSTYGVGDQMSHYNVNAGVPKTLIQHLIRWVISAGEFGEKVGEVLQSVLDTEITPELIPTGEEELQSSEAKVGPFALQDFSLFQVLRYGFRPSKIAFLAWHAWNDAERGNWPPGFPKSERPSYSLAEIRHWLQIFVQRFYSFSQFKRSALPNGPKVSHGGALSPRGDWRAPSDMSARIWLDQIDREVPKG

Row | SMILES | IC50 [µM]
1 | O=C(Nc1ccc([N+](=O)[O-])cc1)Nc1ccc(S(=O)(=O)Nc2cccc(C(F)(F)F)c2)cc1 [Compound 4h] | > 200
2 | O=C(Nc1ccc([N+](=O)[O-])cc1)Nc1ccc(S(=O)(=O)Nc2ccccc2)cc1 [Compound 4l] | > 200
3 | O=C(Nc1ccc([N+](=O)[O-])cc1)Nc1ccc(S(=O)(=O)Nc2ccc([N+](=O)[O-])cc2)cc1 [Compound 4f] | > 200
4 | COc1ccc(NS(=O)(=O)c2ccc(NC(=O)Nc3ccc([N+](=O)[O-])cc3)cc2)cc1 [Compound 4d] | > 200
